The values that follow come from patent US8999976B2, “Modulators of cystic fibrosis transmembrane conductance regulator” (Vertex Pharmaceuticals Incorporated, priority 2008, dated 2015).

For the assay, the target named is T1, ΔF508-CFTR (Homo sapiens, UniProt P13569, DEL508-508).
T1 construct: expressed in transfected cells
Briefly: Membrane potential optical assay for potentiators of ΔF508-CFTR (FLIPR III, voltage sensing dyes). It is filed as cell-based. The settings on record: for Emax: NIH3T3, 100% efficacy is the maximum response obtained with 4-methyl-2-(5-phenyl-1H-pyrazol-3-yl)phenol, ΔF508 CFTR NIH 3T3 cells; for EC50: temperature-corrected ΔF508 CFTR NIH 3T3 cells, forskolin activation. The text has this: The assay utilizes fluorescent voltage sensing dyes to measure changes in membrane potential using a fluorescent plate reader (e.g., FLIPR III, Molecular Devices, Inc.) as a readout for increase in functional ΔF508-CFTR in NIH 3T3 cells.
To identify potentiators of ΔF508-CFTR, a double-addition HTS assay format was developed. This HTS assay utilizes fluorescent voltage sensing dyes to measure changes in membrane potential on the FLIPR III as a measurement for increase in gating (conductance) of ΔF508 CFTR in temperature-corrected ΔF508 CFTR NIH 3T3 cells.
Solutions • Bath Solution #1: (in mM) NaCl 160, KCl 4.5, CaCl2 2, MgCl2 1, HEPES 10, pH 7.4 with NaOH. • Chloride-Free Bath Solution: Chloride Salts in Bath Solution #1 are Substituted with Gluconate Salts.
NIH3T3 mouse fibroblasts stably expressing ΔF508-CFTR are used for optical measurements of membrane potential. The cells are maintained at 37° C. in 5% CO2 and 90% humidity in Dulbecco's modified Eagle's medium supplemented with 2 mM glutamine, 10% fetal bovine serum, 1×NEAA, β-ME, 1×pen/strep, and 25 mM HEPES in 175 cm^2 culture flasks. For all optical assays, the cells were seeded at ˜20,000/well in 384-well matrigel-coated plates and cultured for 2 hrs at 37° C. before culturing at 27° C. for 24 hrs. for the potentiator assay. For the correction assays, the cells are cultured at 27° C. or 37° C. with and without compounds for 16-24 hours. Electrophysiological Assays for assaying ΔF508-CFTR modulation properties of compounds.

T1 sequence (P13569 with tags, fused parts or gaps DEL508-508): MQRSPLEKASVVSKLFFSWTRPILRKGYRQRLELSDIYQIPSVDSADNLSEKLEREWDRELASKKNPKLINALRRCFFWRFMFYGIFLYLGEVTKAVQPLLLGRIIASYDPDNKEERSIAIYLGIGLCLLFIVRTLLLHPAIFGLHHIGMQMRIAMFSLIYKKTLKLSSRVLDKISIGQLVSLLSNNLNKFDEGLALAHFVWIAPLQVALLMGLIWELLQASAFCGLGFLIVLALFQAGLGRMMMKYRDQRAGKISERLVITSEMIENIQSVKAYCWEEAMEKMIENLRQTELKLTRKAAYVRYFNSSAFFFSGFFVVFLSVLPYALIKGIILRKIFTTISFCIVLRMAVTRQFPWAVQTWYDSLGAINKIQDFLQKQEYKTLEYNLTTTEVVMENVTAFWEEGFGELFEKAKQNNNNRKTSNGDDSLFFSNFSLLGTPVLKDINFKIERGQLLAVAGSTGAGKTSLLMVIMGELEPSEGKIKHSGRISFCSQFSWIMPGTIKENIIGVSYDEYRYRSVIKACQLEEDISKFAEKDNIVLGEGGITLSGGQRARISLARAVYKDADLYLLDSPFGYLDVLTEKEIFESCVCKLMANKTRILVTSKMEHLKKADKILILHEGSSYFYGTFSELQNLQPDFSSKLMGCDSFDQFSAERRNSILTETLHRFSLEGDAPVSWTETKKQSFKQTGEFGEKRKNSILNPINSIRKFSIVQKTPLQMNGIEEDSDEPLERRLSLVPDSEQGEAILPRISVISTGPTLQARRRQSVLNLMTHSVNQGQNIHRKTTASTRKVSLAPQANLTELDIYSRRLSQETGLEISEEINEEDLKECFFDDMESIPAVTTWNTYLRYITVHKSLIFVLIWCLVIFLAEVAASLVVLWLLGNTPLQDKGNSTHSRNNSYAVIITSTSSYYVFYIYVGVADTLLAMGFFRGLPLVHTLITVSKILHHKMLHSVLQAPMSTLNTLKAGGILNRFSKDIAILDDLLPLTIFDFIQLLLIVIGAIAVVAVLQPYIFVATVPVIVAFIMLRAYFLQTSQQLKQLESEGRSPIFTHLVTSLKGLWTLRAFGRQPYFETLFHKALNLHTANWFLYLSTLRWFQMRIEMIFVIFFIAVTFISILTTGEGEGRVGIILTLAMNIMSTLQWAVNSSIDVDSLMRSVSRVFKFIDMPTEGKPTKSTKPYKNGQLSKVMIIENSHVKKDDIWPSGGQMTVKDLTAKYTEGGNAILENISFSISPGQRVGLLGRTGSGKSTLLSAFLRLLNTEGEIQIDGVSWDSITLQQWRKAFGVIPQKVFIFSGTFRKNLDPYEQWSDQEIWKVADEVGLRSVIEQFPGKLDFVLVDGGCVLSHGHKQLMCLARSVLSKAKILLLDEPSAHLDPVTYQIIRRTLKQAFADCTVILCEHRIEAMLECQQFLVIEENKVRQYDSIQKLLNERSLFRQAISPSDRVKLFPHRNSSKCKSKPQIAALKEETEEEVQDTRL

On to `CN(C)CC#Cc1cc(C2CCCC2)c(O)cc1NC(=O)C1CNc2cc(OC(F)(F)F)ccc2O1` (centres unmarked) [Compound 106], for which the Emax is greater than 100% and the EC50 is less than 5 µM.
For `COc1cc(NC(=O)C2CNc3ccccc3O2)ccc1-n1c(C)ccc1C` (centres unmarked) [Compound 28] the same measures were 25 to 100% and 5 to 20 µM.
For `Cc1ccc(NC(=O)C2CNc3cc(OC(F)(F)F)ccc3O2)c(C#CCN2CCCCC2)c1` (centres unmarked) [Compound 71] the same measures were 25 to 100% and less than 5 µM.
Regarding `COc1ccc2c(c1)OC(C(=O)Nc1ccc(C(C)(C)C)c(O)c1)CN2` (centres unmarked) [Compound 1], the maximal response (Emax) is less than 25% and the EC50 was in the range of 5 to 20 µM.
As for `Cc1ccc(NC(=O)C2CNc3cc(OC(F)(F)F)ccc3O2)c(-c2nc(CN(C)C)no2)c1` (centres unmarked) [Compound 129], the Emax fell in the range of 25 to 100% and the concentration giving a half-maximal response (EC50) is less than 5 µM.
The corresponding values for `CC(C)(C)c1ccc(NC(=O)C2CNc3cccc(F)c3O2)cc1O` (centres unmarked) [Compound 33] are 25 to 100% and less than 5 µM.
For `Cc1cc(C2CCCC2)c(O)cc1NC(=O)C1CNc2ccc(F)cc2O1` (centres unmarked) [Compound 21] the same measures were 25 to 100% and less than 5 µM.
The corresponding values for `CN1CCN(c2cc(C3CCCC3)c(O)cc2NC(=O)C2CNc3cc(C#N)ccc3O2)CC1` (centres unmarked) [Compound 29] are less than 25% and 5 to 20 µM.
`COc1cc(NC(=O)C2CNc3ccc(F)cc3O2)ccc1C(C)(C)C` (centres unmarked) [Compound 94]: the Emax lay within 25 to 100% and the EC50 was less than 5 µM.
The corresponding values for `Cc1cc(C#CCN(C)C)c(NC(=O)C2CNc3cc(OC(F)(F)F)ccc3O2)cc1C` (centres unmarked) [Compound 127] are 25 to 100% and less than 5 µM.
Take `Cc1ccc(NC(=O)C2CNc3cc(C)ccc3O2)c(C#CCN(C)C)c1` (centres unmarked) [Compound 48]: the Emax fell in the range of 25 to 100% and the EC50 was less than 5 µM.
The corresponding values for `Cc1ccc2c(c1)OC(C(=O)Nc1cc(O)c(C3(C)CCCCC3)cc1F)CN2` (centres unmarked) [Compound 2] are 25 to 100% and less than 5 µM.
For `O=C(Nc1cc(O)c(C2CCCC2)cc1F)C1CNc2ccc(F)cc2O1` (centres unmarked) [Compound 61] the same measures were 25 to 100% and less than 5 µM.
The corresponding values for `Cc1ccc(NC(=O)C2CNc3cc(OC(F)(F)F)ccc3O2)c(C#CCN2CCC(F)(F)C2)c1` (centres unmarked) [Compound 45] are 25 to 100% and less than 5 µM.
Consider `CC(C)(C)c1ccc(NC(=O)C2CNc3cc(F)c(F)cc3O2)cc1O` (centres unmarked) [Compound 49], for which the Emax lay in the range of 25 to 100% and the EC50 was less than 5 µM.
For `O=C(Nc1cc(O)c(C2CCCC2)cc1C(F)(F)F)[C@@H]1CNc2cc(OC(F)(F)F)ccc2O1` [Compound 54] the same measures were 25 to 100% and less than 5 µM.
For `N#Cc1ccc2c(c1)NCC(C(=O)Nc1cc(O)c(C3CCCC3)cc1C(F)(F)F)O2` (centres unmarked) [Compound 39] the same measures were 25 to 100% and less than 5 µM.
Consider `CC(C)c1ccc(NC(=O)C2CNc3cc(Cl)ccc3O2)c(C#CCN(C)C)c1` (centres unmarked) [Compound 60], for which the maximal effect (Emax) was in the range of 25 to 100% and the EC50 is less than 5 µM.
The corresponding values for `Cc1ccc(NC(=O)C2CNc3cc(OC(F)(F)F)ccc3O2)c(C#CCN2CCC(N)CC2)c1` (centres unmarked) [Compound 101] are less than 25% and 5 to 20 µM.
For `CC(C)(C)c1ccc(NC(=O)C2CNc3c(F)cccc3O2)cc1O` (centres unmarked) [Compound 78] the same measures were 25 to 100% and less than 5 µM.
For the compound `CN(C)CCCc1cc(C2CCCC2)c(O)cc1NC(=O)C1CNc2cc(OC(F)(F)F)ccc2O1` (centres unmarked) [Compound 38, N-(4-cyclopentyl-2-(3-(dimethylamino)propyl)-5-hydroxyphenyl)-6-(trifluoromethoxy)-3,4-dihydro-2H-benzo[b][1,4]oxazine-2-carboxamide], the Emax lay in the range of 25 to 100% and the concentration giving a half-maximal response (EC50) was less than 5 µM.
For `CC1(c2cc(F)c(NC(=O)C3CNc4cc(F)ccc4O3)cc2O)CCCCC1` (centres unmarked) [Compound 18], the Emax lay within 25 to 100% and the EC50 is less than 5 µM.
For `Cc1cc2c(cc1F)NCC(C(=O)Nc1cc(O)c(C3CCCC3)cc1C#CCN(C)C)O2` (centres unmarked) [Compound 124] the same measures were 25 to 100% and less than 5 µM.
The corresponding values for `O=C(Nc1cc(O)cc(C(F)(F)F)c1)C1CNc2ccccc2O1` (centres unmarked) [Compound 57] are 25 to 100% and less than 5 µM.
For `CC(C)(C)c1ccc(NC(=O)C2CNc3ccccc3[S+]2[O-])cc1O` (centres unmarked) [Compound 125, N-(4-tert-butyl-3-hydroxy-phenyl)-1-oxo-3,4-dihydro-2H-benzo[b][1,4]thiazine-2-carboxamide] the same measures were less than 25% and less than 5 µM.
As to `N#Cc1cc(C2CCCC2)c(O)cc1NC(=O)[C@H]1CNc2ccc(F)cc2O1` [Compound 17], the Emax was in the range of 25 to 100% and the EC50 was less than 5 µM.
The corresponding values for `Cc1ccc(NC(=O)C2CNc3cc(OC(F)(F)F)ccc3O2)c(C#CCN2CCCC2)c1` (centres unmarked) [Compound 73] are 25 to 100% and less than 5 µM.
The corresponding values for `CCc1cc(F)c(NC(=O)C2CNc3ccc(F)cc3O2)cc1O` (centres unmarked) [Compound 20] are 25 to 100% and less than 5 µM.
The corresponding values for `O=C(O)CCc1cc(C2CCCC2)c(O)cc1NC(=O)C1CNc2cc(OC(F)(F)F)ccc2O1` (centres unmarked) [Compound 16] are 25 to 100% and less than 5 µM.
For the compound `CC(C)(C)c1cc(C2CCCC2)c(O)cc1NC(=O)[C@H]1CNc2cc(C#N)ccc2O1` [Compound 13], the Emax was greater than 100% and the EC50 was less than 5 µM.
On to `CN(C)CC#Cc1cc(C2CCCC2)c(O)cc1NC(=O)[C@H]1CNc2cc(OC(F)(F)F)ccc2O1` [Compound 58], for which the Emax was greater than 100% and the EC50 was less than 5 µM.
The corresponding values for `N#Cc1cc(C2CCCC2)c(O)cc1NC(=O)C1CNc2ccc(F)cc2O1` (centres unmarked) [Compound 23] are 25 to 100% and less than 5 µM.
On to `CC(C)(C)c1cc(C2CCCC2)c(O)cc1NC(=O)[C@@H]1CNc2cc(C#N)ccc2O1` [Compound 59], for which the Emax lay within 25 to 100% and the EC50 is less than 5 µM.
For `CC(C)(C)c1ccc(NC(=O)C2CNc3ccccc3O2)cc1F` (centres unmarked) [Compound 92] the same measures were 25 to 100% and less than 5 µM.
For `COC(=O)Cc1cc(C2CCCC2)c(O)cc1NC(=O)C1CNc2cc(OC(F)(F)F)ccc2O1` (centres unmarked) [Compound 75] the same measures were greater than 100% and less than 5 µM.
The corresponding values for `CC1CCN(Cc2cc(C3CCCC3)c(O)cc2NC(=O)C2CNc3ccccc3O2)CC1` (centres unmarked) [Compound 46] are greater than 100% and less than 5 µM.
On to `O=C(Nc1ccc(O)c(OC(F)(F)F)c1)C1CNc2ccc(F)cc2O1` (centres unmarked) [Compound 109], for which the Emax was in the range of 25 to 100% and the EC50 fell in the range of 5 to 20 µM.

As a reminder, the Emax is the size of the effect at its maximum, as opposed to the concentration needed. A word on the EC50: it is the concentration giving half of the maximal effect.
